The conditions of assay [1]: R. Fujisawa et al. 1996, cited from earlier work.
The next assay has as its system dihydrofolate reductase. Conditions: 1 nmole peptide adsorbed on 1 mg hydroxyapatite; 0.52 nmole DHFR, pH 6.4, shaken 45 minutes; SDS gel, Coumassie Blue. The method, then:
The supernatant was removed by centrifugation and the hydroxyapatite was washed with 100 μl of water. Dihydrofolate reductase (0.52 nmole) in 200 μl of buffer containing 0.1 M ammonium sulfate, 0.01 M potassium phosphate, at pH 6.4 and 5% glycerol was added to the hydroxyapatite and shaken for 45 minutes. The hydroxyapatite was separated from the supernatant, washed with 100 μl of water and then eluted twice with 20 μl of 0.02 M K4P2O7. […] The supernatant, the washes and the pyrophosphate eluate were analyzed on a 6% arylamide SDS gel using Coumassie Blue to visualize dihydrofolate reductase.

The target of another assay is streptavidin (Streptomyces avidinii, UniProt P22629). Nature of the assay: Recruitment of 125I-labeled streptavidin to hydroxyapatite. It counts as binding. The note with it: 1 nmole peptide on 1 mg hydroxyapatite; 0.1 nmole 125I-streptavidin, 1 M KCl, 0.01 M phosphate pH 6.5, 45 minutes. On the procedure:
The supernatant was removed by centrifugation, and the conjugate treated hydroxyapatite washed several times with 200 μl of H2O. The amounts of radioactivity found in the supernatant, wash and conjugate treated hydroxyapatite were then measured. In control experiments, biotin-glu10 was replaced by glu10. When a peptide bound to the hydroxyapatite was ligated to biotin about 70% of the streptavidin was recruited to the hydroxyapatite and 25-30% remained in the supernatant. In the control experiment, no more than 5% of the streptavidin was bound to the hydroxyapatite.

Chain of streptavidin (P22629 25-183): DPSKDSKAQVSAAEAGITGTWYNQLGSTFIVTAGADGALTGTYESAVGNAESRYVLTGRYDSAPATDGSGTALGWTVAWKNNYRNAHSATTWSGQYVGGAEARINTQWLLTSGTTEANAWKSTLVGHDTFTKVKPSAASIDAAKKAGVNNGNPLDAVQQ

For Aspartic acid hexamer [Asp6], the adsorption onto hydroxyapatite result in assay [1] was “significantly adsorb”. As for Glutamic acid decapeptide [glu10], in the assay on dihydrofolate reductase, the “dihydrofolate reductase found in the pyrophosphate eluate” value was “only a small amount”. At streptavidin, the “streptavidin recruited (bound) to the hydroxyapatite” value was “no more than 5%”. Consider glutamic acid hexamer [Glu6], for which the adsorption onto hydroxyapatite result in assay [1] is listed as “significantly adsorb”. The “effect on mineralization of hydroxyapatite” value in assay [1] (in the presence of calcium and phosphate) was “affect the mineralization”.

The values above are taken from US6455495B1, “Methods and compositions for delivery of therapeutic agents to bone tissue employing conjugates of negatively charged peptide oligomers with therapeutic agents” (The Salk Institute for Biological Studies, priority 1997, dated 2002).
